Measurements taken from US20220056043A1, “NITROGEN-CONTAINING FUSED CYCLIC COMPOUND, PREPARATION METHOD THEREFOR AND USE THEREOF” (SICHUAN KELUN-BIOTECH BIOPHARMACEUTICAL CO., LTD., priority 2019, published 2022).
pEC50: −log10 of the molar value. Structures can show the parent of a compound that is named as a salt.

These compounds were tested against T1, hTLR7 (Homo sapiens, UniProt Q9NYK1) (assay: Agonistic effect on hTLR7, HEK-hTLR7-NF-κB-Luciferase reporter cells). Settings: 16 hours.
T1 construct: host or cells: HEK-hTLR7-NF-κB-Luciferase cells
T1 sequence (Q9NYK1 27-1049): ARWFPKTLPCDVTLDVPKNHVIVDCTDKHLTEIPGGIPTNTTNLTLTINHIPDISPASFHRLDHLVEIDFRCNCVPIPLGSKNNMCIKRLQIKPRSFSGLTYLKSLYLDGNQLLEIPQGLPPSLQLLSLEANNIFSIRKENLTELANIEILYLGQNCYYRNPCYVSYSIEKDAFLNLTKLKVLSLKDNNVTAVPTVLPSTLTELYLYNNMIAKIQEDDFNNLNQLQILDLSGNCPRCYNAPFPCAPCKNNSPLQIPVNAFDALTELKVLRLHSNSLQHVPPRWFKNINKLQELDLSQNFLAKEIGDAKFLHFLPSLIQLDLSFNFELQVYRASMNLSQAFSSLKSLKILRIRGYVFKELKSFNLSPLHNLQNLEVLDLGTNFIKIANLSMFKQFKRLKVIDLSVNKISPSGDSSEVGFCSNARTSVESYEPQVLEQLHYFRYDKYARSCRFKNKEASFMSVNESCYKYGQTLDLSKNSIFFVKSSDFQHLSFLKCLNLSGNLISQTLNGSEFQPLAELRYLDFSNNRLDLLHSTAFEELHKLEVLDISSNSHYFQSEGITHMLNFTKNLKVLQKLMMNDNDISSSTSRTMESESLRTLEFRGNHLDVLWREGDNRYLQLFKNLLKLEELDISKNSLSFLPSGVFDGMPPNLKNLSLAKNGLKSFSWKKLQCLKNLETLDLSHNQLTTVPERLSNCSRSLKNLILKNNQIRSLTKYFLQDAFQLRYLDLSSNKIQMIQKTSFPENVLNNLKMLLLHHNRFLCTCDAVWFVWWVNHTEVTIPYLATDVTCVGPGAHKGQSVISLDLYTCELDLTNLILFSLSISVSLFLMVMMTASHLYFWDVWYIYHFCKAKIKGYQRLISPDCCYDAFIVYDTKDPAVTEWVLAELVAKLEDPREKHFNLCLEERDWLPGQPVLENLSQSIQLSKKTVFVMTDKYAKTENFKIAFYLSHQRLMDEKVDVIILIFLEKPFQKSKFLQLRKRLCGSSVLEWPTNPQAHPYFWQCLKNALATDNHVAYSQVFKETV
Type: cell-based
Description: Experimental Example 3: Agonistic Effect of the Compound of the Invention on hTLR7
In this test, the luciferase in HEK-hTLR7-NF-κB-reporter cells was detected to test the activating effect of the compound of the invention on TLR7 signaling pathway, so as to evaluate the specificity of the agonistic effect of the compound on NLRP3 pathway.
Reagents: DMEM (High glucose); FBS (fetal bovine serum) (Gibco); Bright-Glo™ Luciferase detection kit (Promega)
Cells: HEK-hTLR7-NF-κB-Luciferase gene cells (human TLR7 NF-κB-luciferase reporter gene cells) (Nanjing Cobioer)
1) The HEK-hTLR7-NF-κB-Luciferase cells in a logarithmic growth phase were trypsinized and resuspended in the medium to a concentration of 2×10^6 cells/mL. 50 μL/well of the cell resuspension was added to a 96-well plate such that the number of cells in each well was […]. An appropriate amount of 10 mM DMSO solution of the compound to be tested was taken and diluted to a concentration of 2× test concentration with the medium. 50 μL/well was added to the cells in the 96-well plate, and the 96-well plate was incubated in an incubator at 37° C. and 5% CO2 for 16 hours. The medium was DMEM (High glucose) containing 10% FBS.
2) After the cell incubation, 100 μL/well of Bright-Glo™ Luciferase detection reagent was added, and the mixture was incubated at room temperature for 5 minutes. Relative luciferase activity unit (RLU) was read using a microplate reader.
3) The EC50 of effect of the tested compound to stimulate hTLR7 was fitted by the GraphPad software log(agonist) vs. response—Variable slope four-parameter method.
`Nc1cc(N[C@H]2CC[C@H](O)C2)c2sc(-c3ccn[nH]3)cc2n1` [Compound 26, (1S,3S)-3-((5-amino-2-(1H-pyrazol-5-yl)thieno[3,2-b]pyridin-7-yl)amino)cyclopentanol] was tested, and the pEC50 was less than 4.00.
With `Nc1cc(N[C@@H]2CC[C@@H](O)C2)c2sc(-c3ccn[nH]3)cc2n1` [Compound 30s, (1R,3R)-3-((5-amino-2-(1H-pyrazol-5-yl)thieno[3,2-b]pyridin-7-yl)amino)cyclopentanol hydrochloride] the pEC50 was less than 4.00.
`Nc1cc(N[C@@H]2CC[C@H](O)C2)c2sc(-c3ccn[nH]3)cc2n1` [Compound 31, (1S,3R)-3-((5-amino-2-(1H-pyrazol-5-yl)thieno[3,2-b]pyridin-7-yl)amino)cyclopentanol] gave a pEC50 of less than 4.00.
With `C[C@H](O)CNc1cc(N)nc2cc(-c3ccn[nH]3)sc12` [Compound 33] the pEC50 was less than 4.00.
For `Nc1cc(NC2CC(O)C2)c2sc(-c3ccn[nH]3)cc2n1` (centres unmarked) [Compound 40, 3-((5-amino-2-(1H-pyrazol-5-yl)thieno[3,2-b]pyridin-7-yl)amino)cyclobutanol], the pEC50 was less than 4.00.
Work on `CN1CC[C@H](Nc2cc(N)nc3cc(-c4ccn[nH]4)sc23)C1` [Compound 51, (S)—N^7-(1-methylpyrrolidin-3-yl)-2-(1H-pyrazol-5-yl)thieno[3,2-b]pyridine-5,7-diamine] yielded a pEC50 of less than 4.00.
Compound `CC(=O)NCCNc1cc(N)nc2cc(-c3ccn[nH]3)sc12` [Compound 52] has a pEC50 of less than 4.00.
With `CC(=O)NCCCNc1cc(N)nc2cc(-c3ccn[nH]3)sc12` [Compound 53] the pEC50 was less than 4.00.
Compound `CN1CCN(CCCNc2cc(N)nc3cc(-c4ccn[nH]4)sc23)CC1` [Compound 54, N^7-(3-(4-methylpiperazin-1-yl)propyl)-2-(1H-pyrazol-5-yl)thieno[3,2-b]pyridine-5,7-diamine] has a pEC50 of less than 4.00.
In the case of `Nc1cc(NCCN2CCOCC2)c2sc(-c3ccn[nH]3)cc2n1` [Compound 55, N^7-(2-morpholinoethyl)-2-(1H-pyrazol-5-yl)thieno[3,2-b]pyridine-5,7-diamine], the pEC50 was less than 4.00.
Compound `CN1CCN(CCNc2cc(N)nc3cc(-c4ccn[nH]4)sc23)CC1` [Compound 57, N^7-(2-(4-methylpiperazin-1-yl)ethyl)-2-(1H-pyrazol-5-yl)thieno[3,2-b]pyridine-5,7-diamine] has a pEC50 of less than 4.00.
With `Nc1cc(NCCCNC(=O)C2CC2)c2sc(-c3ccn[nH]3)cc2n1` [Compound 58] the pEC50 was less than 4.00.
Work on `Nc1cc(NCc2ccccn2)c2sc(-c3ccn[nH]3)cc2n1` [Compound 59, 2-(1H-pyrazol-5-yl)-N^7-(pyridin-2-ylmethyl)thieno[3,2-b]pyridine-5,7-diamine] yielded a pEC50 of less than 4.00.
`Cn1ccc(CNc2cc(N)nc3cc(-c4ccn[nH]4)sc23)n1` [Compound 60, N^7-(1-methyl-1H-pyrazol-3-yl)methyl-2-(1H-pyrazol-5-yl)thieno[3,2-b]pyridine-5,7-diamine] gave a pEC50 of less than 4.00.
`Nc1cc(NC2CCOC2)c2sc(-c3ccn[nH]3)cc2n1` (centres unmarked) [Compound 61, 2-(1H-pyrazol-5-yl)-N^7-(tetrahydrofuran-3-yl)thieno[3,2-b]pyridine-5,7-diamine] showed a pEC50 of less than 4.00.
Work on `CC1CN(CCNc2cc(N)nc3cc(-c4ccn[nH]4)sc23)CC(C)O1` (centres unmarked) [Compound 62] yielded a pEC50 of less than 4.00.
In the case of `Cn1cnc(CNc2cc(N)nc3cc(-c4ccn[nH]4)sc23)c1` [Compound 63, N^7-(1-methyl-1H-imidazol-4-yl)methyl-2-(1H-pyrazol-5-yl)thieno[3,2-b]pyridine-5,7-diamine], the pEC50 was less than 4.00.
With `Nc1cc(NCCNC(=O)C2CC2)c2sc(-c3ccn[nH]3)cc2n1` [Compound 64] the pEC50 was less than 4.00.
With `CC(=O)N(C)CCNc1cc(N)nc2cc(-c3ccn[nH]3)sc12` [Compound 73, N-(2-((5-amino-2-(1H-pyrazol-5-yl)thieno[3,2-b]pyridin-7-yl)amino)ethyl)-N-methylethanamide] the pEC50 was less than 4.00.
`CC(=O)N(C)CCCNc1cc(N)nc2cc(-c3ccn[nH]3)sc12` [Compound 74, N-(3-((5-amino-2-(1H-pyrazol-5-yl)thieno[3,2-b]pyridin-7-yl)amino)propyl)-N-methylacetamide] was tested, and the pEC50 was less than 4.00.
`CN(CCNc1cc(N)nc2cc(-c3ccn[nH]3)sc12)C(=O)C1CC1` [Compound 75, N-(2-((5-amino-2-(1H-pyrazol-5-yl)thieno[3,2-b]pyridin-7-yl)amino)ethyl)-N-methylcyclopropionamide] showed a pEC50 of less than 4.00.
With `CN(CCCNc1cc(N)nc2cc(-c3ccn[nH]3)sc12)C(=O)C1CC1` [Compound 76, N-(3-((5-amino-2-(1H-pyrazol-5-yl)thieno[3,2-b]pyridin-7-yl)amino)propyl)-N-methylcyclopropane formamide] the pEC50 was less than 4.00.
Compound `CCC(=O)N(C)CCNc1cc(N)nc2cc(-c3ccn[nH]3)sc12` [Compound 88, N-(2-((5-amino-2-(1H-pyrazol-5-yl)thieno[3,2-b]pyridin-7-yl)amino)ethyl)-N-methylpropionamide] has a pEC50 of less than 4.00.
With `CN1CCC(Nc2cc(N)nc3cc(-c4ccn[nH]4)sc23)CC1` [Compound 89, N^7-(1-methylpiperidin-4-yl)-2-(1H-pyrazol-5-yl)thieno[3,2-b]pyridine-5,7-diamine] the pEC50 was less than 4.00.
Work on `Nc1cc(NCCCO)c2sc(-c3ccncc3)cc2n1` [Compound 90, 3-((5-amino-2-(pyridin-4-yl)thieno[3,2-b]pyridin-7-yl)amino)-1-propanol] yielded a pEC50 of less than 4.00.
`Cc1cccc(-c2cc3nc(N)cc(NCCCO)c3s2)n1` [Compound 91, 3-((5-amino-2-(6-methylpyridin-2-yl)thieno[3,2-b]pyridin-7-yl)amino)-1-propanol] gave a pEC50 of less than 4.00.
`CC(=O)N1CCC(Nc2cc(N)nc3cc(-c4ccn[nH]4)sc23)CC1` [Compound 92, 1-(4-((5-amino-2-(1H-pyrazol-5-yl)thieno[3,2-b]pyridin-7-yl)amino)piperidin-1-yl)ethanone] was tested, and the pEC50 was less than 4.00.
`Nc1cc(NCCCO)c2sc(-c3ccccc3)cc2n1` [Compound 93, 3-((5-amino-2-phenylthieno[3,2-b]pyridin-7-yl)amino)-1-propanol] gave a pEC50 of less than 4.00.
For `CC[C@H](CO)Nc1cc(N)nc2cc(-c3ccn[nH]3)sc12` [Compound 95, (R)-2-((5-amino-2-(1H-pyrazol-5-yl)thieno[3,2-b]pyridin-7-yl)amino)butanol], the pEC50 was less than 4.00.
Work on `Nc1cc(N[C@@H]2CCC[C@@H]2O)c2sc(-c3ccn[nH]3)cc2n1` [Compound 96, (1S,2R)-2-((5-amino-2-(1H-pyrazol-5-yl)thieno[3,2-b]pyridin-7-yl)amino)cyclopentanol] yielded a pEC50 of less than 4.00.
Work on `Nc1cc(NCC(F)(F)c2ccccn2)c2sc(-c3ccn[nH]3)cc2n1` [Compound 97, N^7-(2,2-difluoro-2-(pyridin-2-yl)ethyl)-2-(1H-pyrazol-5-yl)thieno[3,2-b]pyridine-5,7-diamine] yielded a pEC50 of less than 4.00.
`CC1(O)CCN(CCNc2cc(N)nc3cc(-c4ccn[nH]4)sc23)CC1` [Compound 98, 1-(2-((5-amino-2-(1H-pyrazol-5-yl)thieno[3,2-b]pyridin-7-yl)amino)ethyl)-4-methylpiperidine-4-ol] showed a pEC50 of less than 4.00.
For `CC1(O)CCN(CCCNc2cc(N)nc3cc(-c4ccn[nH]4)sc23)CC1` [Compound 99, 1-(3-((5-amino-2-(1H-pyrazol-5-yl)thieno[3,2-b]pyridin-7-yl)amino)propyl)-4-methylpiperidine-4-ol], the pEC50 was less than 4.00.
`COCCNc1cc(N)nc2cc(-c3ccn[nH]3)sc12` [Compound 100, N^7-(2-methoxyethyl)-2-(1H-pyrazol-5-yl)thieno[3,2-b]pyridine-5,7-diamine] was tested, and the pEC50 was less than 4.00.
For `CO[C@H](C)CNc1cc(N)nc2cc(-c3ccn[nH]3)sc12` [Compound 101, (R)—N^7-(2-methoxypropyl)-2-(1H-pyrazol-5-yl)thieno[3,2-b]pyridine-5,7-diamine], the pEC50 was less than 4.00.
